Columns and labels:
narrowleaf weed species [1] = assay: Field Trial 2 results summary, narrowleaf control; type: in vivo; conditions: 0.25 lb a.i./acre (0.28 kg/hectare), 4 WAT
Source text: (§1) Four replications were completed per treatment.

ECHCG (Echinochola sps.) = assay: Field trial 1 weed control, ECHCG; type: in vivo; conditions: 0.25 lb/acre, pre-emergence to weeds, 4 WAT
Source text: as §1

AMATG = assay: Field trial 1 weed control, AMATG; type: in vivo, Glyphosate-resistant (GR) AMATA; conditions: 0.25 lb/acre, pre-emergence to weeds, 4 WAT
Source text: as §1

SORSS (Sorghum sps.) = assay: Field trial 1 weed control, SORSS; type: in vivo; conditions: 0.25 lb/acre, pre-emergence to weeds, 4 WAT
Source text: as §1

SEBEX = assay: Field trial 1 weed control, SEBEX; conditions: 0.25 lb/acre, pre-emergence to weeds, 4 WAT
Procedure: A series of field trials were conducted at a variety of locations. The soil texture at these sites ranged from silty loam, silty clay loam, to sandy silt loam and sandy loam. The objective of the experiment was to evaluate the weed efficacy and length of residual efficacy of the each standalone herbicide compared to the herbicide combinations. The experiments were conducted in a randomized complete block design. Four replications were completed per treatment. Time of application was pre-emergence to weeds, and treatments were applied using a back-pack or tractor mounted sprayer.
Weed control was determined as a percentage as compared to untreated plants following a standard procedure where visual assessment of plant mortality and growth reduction is made by one specially trained to make such assessments. Across the field trials, the results for 16 broadleaf and 7 narrowleaf weed species were recorded. […] Mean percent control and standard error are calculated by the least squares method.

DIGSA = assay: Field trial 1 weed control, DIGSA; type: in vivo; conditions: 0.25 lb/acre, pre-emergence to weeds, 4 WAT
Source text: as §1

ABUTH (velvetleaf) = assay: Field trial 1 weed control, ABUTH; type: in vivo; conditions: 0.25 lb/acre, pre-emergence to weeds, 4 WAT
Source text: as §1

POROL (common purslane) = assay: Field trial 1 weed control, POROL; type: in vivo; conditions: 0.25 lb/acre, pre-emergence to weeds, 4 WAT
Source text: as §1

DIGSS (Digitaria sps.) = assay: Field trial 1 weed control, DIGSS; type: in vivo; conditions: 0.25 lb/acre, pre-emergence to weeds, 4 WAT
Source text: as §1

HIBTR (venice mallow) = assay: Field trial 1 weed control, HIBTR; type: in vivo; conditions: 0.25 lb/acre, pre-emergence to weeds, 4 WAT
Source text: as §1

[2] = tested on: IPOSS (Morningglory sps.); assay: Field trial 1 weed control, IPOSS; type: in vivo; conditions: 0.25 lb/acre, pre-emergence to weeds, 4 WAT
Source text: as §1

broadleaf weed species [3] = assay: Field Trial 1 results summary, broadleaf control; type: in vivo; conditions: 0.25 lb a.i./acre (0.28 kg/hectare), 4 WAT
Source text: as §1

IPOLA = assay: Field trial 1 weed control, IPOLA; type: in vivo; conditions: 0.25 lb/acre, pre-emergence to weeds, 4 WAT
Source text: as §1

SIDSP (prickly sida) = assay: Field trial 1 weed control, SIDSP; type: in vivo; conditions: 0.25 lb/acre, pre-emergence to weeds, 4 WAT
Source text: as §1

AMBEL (common ragweed) = assay: Field trial 1 weed control, AMBEL; type: in vivo; conditions: 0.25 lb/acre, pre-emergence to weeds, 4 WAT
Source text: as §1

EPHSS (Euphorbia sps.) = assay: Field trial 1 weed control, EPHSS; type: in vivo; conditions: 0.25 lb/acre, pre-emergence to weeds, 4 WAT
Source text: as §1

SORHA (johnsongrass) = assay: Field trial 1 weed control, SORHA; type: in vivo; conditions: 0.25 lb/acre, pre-emergence to weeds, 4 WAT
Source text: as §1

AMATA = assay: Field trial 1 weed control, AMATA; type: in vivo, waterhemp; conditions: 0.25 lb/acre, pre-emergence to weeds, 4 WAT
Source text: as §1

SETFA (giant foxtail) = assay: Field trial 1 weed control, SETFA; type: in vivo; conditions: 0.25 lb/acre, pre-emergence to weeds, 4 WAT
Source text: as §1

narrowleaf weed species [4] = assay: Field Trial 1 results summary, narrowleaf control; type: in vivo; conditions: 0.25 lb a.i./acre (0.28 kg/hectare), 4 WAT
Source text: as §1

CASOB (sicklepod) = assay: Field trial 1 weed control, CASOB; type: in vivo; conditions: 0.25 lb/acre, pre-emergence to weeds, 4 WAT
Source text: as §1

IPOHE = assay: Field trial 1 weed control, IPOHE; type: in vivo; conditions: 0.25 lb/acre, pre-emergence to weeds, 4 WAT
Source text: as §1

[5] = tested on: ACCOS (hophornbeam copperleaf); assay: Field trial 1 weed control, ACCOS; type: in vivo; conditions: 0.25 lb/acre, pre-emergence to weeds, 4 WAT
Source text: as §1

[6] = tested on: CHEAL (common lambsquarters); assay: Field trial 1 weed control, CHEAL; type: in vivo; conditions: 0.25 lb/acre, pre-emergence to weeds, 4 WAT
Source text: as §1

MOLVE (carpetweed) = assay: Field trial 1 weed control, MOLVE; type: in vivo; conditions: 0.25 lb/acre, pre-emergence to weeds, 4 WAT
Source text: as §1

broadleaf weed species [7] = assay: Field Trial 2 results summary, broadleaf control; type: in vivo; conditions: 0.25 lb a.i./acre (0.28 kg/hectare), 4 WAT
Source text: as §1

AMAPA = assay: Field trial 1 weed control, AMAPA; type: in vivo, palmer amaranth; conditions: 0.25 lb/acre, pre-emergence to weeds, 4 WAT
Source text: as §1

PESGL (pearl millet) = assay: Field trial 1 weed control, PESGL; type: in vivo; conditions: 0.25 lb/acre, pre-emergence to weeds, 4 WAT
Source text: as §1

BRASS (Signalgrass sps.) = assay: Field trial 1 weed control, BRASS; type: in vivo; conditions: 0.25 lb/acre, pre-emergence to weeds, 4 WAT
Source text: as §1

AMAPG = assay: Field trial 1 weed control, AMAPG; type: in vivo, Glyphosate-resistant (GR) AMAPA; conditions: 0.25 lb/acre, pre-emergence to weeds, 4 WAT
Source text: as §1

ECHCF = assay: Field trial 1 weed control, ECHCF; type: in vivo; conditions: 0.25 lb/acre, pre-emergence to weeds, 4 WAT
Source text: as §1

With `CS(=O)(=O)NC(=O)c1cc(Oc2ccc(C(F)(F)F)cc2Cl)ccc1[N+](=O)[O-]` [Fomesafen, fomesafen] as the compound, how does the “Narrowleaf Control” value (narrowleaf weed species [1]) read?
The value was 66.3%.

What about the “% Control (mean)” value (ECHCG (Echinochola sps.)) of the same compound?
Its value is 66.8%.

And the “% Control (mean)” value (AMATG)?
The value was 57.5%.

And the “% Control (mean)” value (SORSS (Sorghum sps.))?
Its value is 99.8%.

And the “% Control (mean)” value (SEBEX)?
The value was 33.8%.

What about the “% Control (mean)” value (DIGSA) of the same compound?
The value was 65.3%.

And the “% Control (mean)” value (ABUTH (velvetleaf))?
Its value is 63.7%.

What about the “% Control (mean)” value (POROL (common purslane)) of the same compound?
Its value is 66.3%.

What about the “% Control (mean)” value (DIGSS (Digitaria sps.)) of the same compound?
Its value is 99.0%.

What about the “% Control (mean)” value (HIBTR (venice mallow)) of the same compound?
The value was 75.0%.

And the “% Control (mean)” value [2]?
The value was 63.1%.

And the “Broadleaf Control” value (broadleaf weed species [3])?
Its value is 70%.

What about the “% Control (mean)” value (IPOLA) of the same compound?
Its value is 27.5%.

What about the “% Control (mean)” value (SIDSP (prickly sida)) of the same compound?
Its value is 98.3%.

And the “% Control (mean)” value (AMBEL (common ragweed))?
The value was 75.8%.

And the “% Control (mean)” value (EPHSS (Euphorbia sps.))?
The value was 100.0%.

And the “% Control (mean)” value (SORHA (johnsongrass))?
The value was 86.8%.

What about the “% Control (mean)” value (AMATA) of the same compound?
Its value is 85.8%.

And the “% Control (mean)” value (SETFA (giant foxtail))?
The value was 58.8%.

What about the “Narrowleaf Control” value (narrowleaf weed species [4]) of the same compound?
Its value is 79%.

What about the “% Control (mean)” value (CASOB (sicklepod)) of the same compound?
Its value is 46.2%.

What about the “% Control (mean)” value (IPOHE) of the same compound?
Its value is 52.5%.

And the “% Control (mean)” value [5]?
Its value is 93.8%.

And the “% Control (mean)” value [6]?
Its value is 78.3%.

And the “% Control (mean)” value (MOLVE (carpetweed))?
Its value is 90.6%.

What about the “Broadleaf Control” value (broadleaf weed species [7]) of the same compound?
The value was 63.6%.

What about the “% Control (mean)” value (AMAPA) of the same compound?
Its value is 92.5%.

And the “% Control (mean)” value (PESGL (pearl millet))?
Its value is 100.0%.

What about the “% Control (mean)” value (BRASS (Signalgrass sps.)) of the same compound?
Its value is 99.5%.

And the “% Control (mean)” value (AMAPG)?
The value was 87.8%.

And the “% Control (mean)” value (ECHCF)?
The value was 71.9%.

Reference: patent US12389906B2, “Aqueous herbicidal concentrates” (Monsanto Technology LLC, priority 2014, dated 2025)
